Test results: US12313625B2, “Living tissue model device, vascular wall model, vascular wall model device and method of evaluating test substance” (FUJIFILM CORPORATION, priority 2017, dated 2025)

Key:
[1] = tested on: VEC/SMC-HCM insert (HUVEC / HUASMC vascular wall model); settings: histamine 10 μM or 100 μM, incubated 120 minutes, FIG. 10
Protocol: • (1) 2 mg of FITC-dextran 70 (70 kDa, Sigma) was dissolved in 8 ml of HBSS (+) (084-08965, Wako), to prepare a 250 μg/ml FITC-dextran 70 solution. The FITC-dextran 70 solution was stored in a light-shielded condition. […] The 96-well black plate was light-shielded by being covered with an aluminum sheet. • (9) The fluorescent intensity of the FITC in each sample liquid was measured using a plate reader (ENSPIRE, PerkinElmer) with an excitation wavelength (Ex) of 485 nm and an emission wavelength (Em) of 530 nm.

[2] = tested on: cell layered body of rat vascular endothelial cells and rat smooth muscle cells on HCM; assay: Evaluation of response to physiologically active substance (thrombin) by microscopy of the cell layered body; assay type: cell-based; settings: 37° C., 30 minutes
Protocol: • (1) 0.1 mg (100 units) of thrombin (#T7009-100UN, Sigma) was dissolved in 100 μl of physiological saline to prepare a thrombin solution at a concentration of 1000 U/mL. […] The micrograph of the cell layered body is shown in FIG. 12, which is a superposed image of red fluorescence from VE-cadherin and green fluorescence from α-smooth muscle actin.

| Molecule | FITC-dextran 70 permeability [1] | cell contraction observed under a microscope ([2]; 25 U/mL or 100 U/mL thrombin, FIG. 12) | concentration dependence of cell contraction ([2]; 25 U/mL vs 100 U/mL thrombin) |
| --- | --- | --- | --- |
| NCCc1c[nH]cn1 [histamine, Histamine] | increase in FITC-dextran 70 permeability depending on the concentration of histamine | – | – |
| thrombin | – | cell contraction due to activation of actin stress fibers caused by the addition of thrombin was observed | Higher thrombin concentrations caused stronger cell contractions |
